In publication PMC7751416, “Novel positive allosteric modulators of A2B adenosine receptor acting as bone mineralisation promoters” (Journal of Enzyme Inhibition and Medicinal Chemistry, 2020):

What was measured:
MSCs [1] = system: MSCs; set-up: method as in PMID 25241343; conditions: read-out: EC50, potency on MSCs; cited from earlier work
MSCs [2] = assay: Quantification of mineralisation (Alizarin Red staining) by MSCs-derived osteoblasts; type: cell-based, human; conditions: MSCs 15 days in osteogenic medium, mean ± SEM
Protocol: Human bone marrow derived MSCs were cultured in normal growth medium (MSCGM, Sigma Aldrich), plated (5.000 cells/cm^2) in 75-cm^2 flasks and incubated at 37 °C in 5% CO2 and 95% air. The medium was changed to remove non adherent cells every 3 to 4 days and the cells were used at passages 2 to 6.
MSCs were seeded at a density of 3300 cells/cm^2 and maintained in growth medium for 2 days. Then, medium was replaced with Mesenchymal Stem Cell Osteogenic Differentiation Medium (Cat. N. C-28013, Sigma Aldrich) and treated in the absence (control) or in the presence of BAY60-6583 (5 nM) alone or in combination with the new compounds. Treatments were repeated every 3 days and the mineralisation was quantified after 15 days of treatment. The rate of mineralisation was quantified using alizarin red staining as previously reported. Briefly, cells were washed with PBS, fixed (4% formaldehyde in PBS) for 15 min and washed three times with PBS. Then, Alizarin Red S (1:100 in distilled water, adjusted to pH 4.2 and filtered) was added and incubated for 20 min, at the end cells were washed (five times) in 50% ethanol and air dried. For quantification, cells were destained overnight in 10% (w/v) cetylpyridinium chloride at room temperature and the absorbance was read using a spectrophotometer (Victor Wallac 2, Perkin Elmer) at 562 nm.
Figure 1. Effects of the new compounds on mineralisation mediated by MSCs-derived osteoblast. MSCs were cultured for 15 days in osteogenic medium with compounds at 1 μM concentration in the presence (A) or in the absence (B) of the A2B AR agonist BAY60-6583 (5 nM). After treatments, cells were stained with Alizarin Red and mineralisation was evaluated as reported in Experimental section. Data are expressed as percentage of mineralisation versus the CTRL set to 100% and represent the mean ± SEM of at least two independent experiments. Each experiment was performed in duplicate. *p < 0.05; **p < 0.01; ***p < 0.001 vs. CTRL. #p < 0.05; ###p < 0.001 vs. BAY60-6583 or NECA.

[3] = biological target: T1, human A1 adenosine receptors (Homo sapiens, UniProt P30542); assay: Human A1 adenosine receptor competition binding ([3H]DPCPX, CHO cell membranes); conditions: radioligand binding, A1 AR
T1 construct: K. N. Klotz, Wurzburg University (gift); host or cells: CHO cells, stably transfected; membranes used
T1 sequence (P30542 1-326): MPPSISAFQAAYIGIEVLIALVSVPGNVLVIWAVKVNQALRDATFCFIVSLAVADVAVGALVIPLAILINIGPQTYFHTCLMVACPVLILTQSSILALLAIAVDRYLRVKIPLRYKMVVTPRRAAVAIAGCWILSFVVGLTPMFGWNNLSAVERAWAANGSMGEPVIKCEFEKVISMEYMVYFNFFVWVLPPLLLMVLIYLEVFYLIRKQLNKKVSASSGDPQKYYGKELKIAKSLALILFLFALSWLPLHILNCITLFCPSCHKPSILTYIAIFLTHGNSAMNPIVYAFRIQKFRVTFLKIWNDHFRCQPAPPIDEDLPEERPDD
Protocol: (§1) ADA (Cat. N. 10102105001) was from Sigma Aldrich (Italy). All other reagents were from commercial sources and of the highest commercially available grade. CHO cells stably expressing human A1, A2A, A3 and A2B ARs were kindly supplied by Prof. K. N. Klotz, Wurzburg University, Germany. MSCs (Cat. N. SCC034) were purchased by Sigma Aldrich (Milan, Italy).
Competition binding experiments were performed as previously reported. […] R-PIA (50 µM) was used for the determination of non-specific binding.

[4] = biological target: T2, human A2A adenosine receptors (Homo sapiens, UniProt P29274); assay: Human A2A adenosine receptor competition binding ([3H]NECA, CHO cell membranes); conditions: radioligand binding, A2A AR
T2 construct: K. N. Klotz, Wurzburg University (gift); host or cells: CHO cells, stably transfected; membranes used
Protocol: as §1
(§2) Competition binding experiments were performed as previously reported. Briefly, membranes of A2A CHO cells were incubated at 25 °C for 90 min in 500 µL of buffer in the presence of [^3H]NECA (30 nM) and six different concentrations of the newly synthesised compounds. NECA (100 µM) was used for the determination of non-specific binding.

human A2B AR = biological target: T3, human A2B AR (Homo sapiens, UniProt P29275); assay: Measurement of cyclic AMP levels in A2B AR CHO cells; type: cell-based
T3 construct: K. N. Klotz, Wurzburg University (gift); host or cells: CHO cells, stably transfected
T3 sequence (P29275 1-332): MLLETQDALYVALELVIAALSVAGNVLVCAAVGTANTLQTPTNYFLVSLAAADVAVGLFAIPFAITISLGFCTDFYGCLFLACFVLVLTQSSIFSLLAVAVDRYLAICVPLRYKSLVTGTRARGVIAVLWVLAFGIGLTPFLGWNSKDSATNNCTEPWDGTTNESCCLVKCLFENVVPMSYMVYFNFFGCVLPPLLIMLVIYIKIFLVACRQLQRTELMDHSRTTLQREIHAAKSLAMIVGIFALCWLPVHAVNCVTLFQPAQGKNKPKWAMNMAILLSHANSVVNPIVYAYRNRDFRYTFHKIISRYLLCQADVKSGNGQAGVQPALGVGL
Protocol: Intracellular cyclic AMP (cAMP) levels were measured using a competitive protein binding method, as previously reported[31] A2B AR CHO cells were seed at a density of 24 000 cell/cm^2 in a 24 multiwell plate. After 48 h, the medium was removed and the cells were incubated at 37 °C for 15 min with 500 µL of Dulbecco’s Modified Eagle Medium (DMEM) in the presence of ADA (1 U/mL) and the phosphodiesterase inhibitor Ro20-1724 (20 µM).
The agonist efficacy profile of the compounds at ARs was evaluated by assessing their ability to modulate intracellular cAMP levels in the absence of standard agonists. The antagonism profile of the new compounds was evaluated by assessing their ability to inhibit 100 nM NECA-mediated accumulation of cAMP. The new compounds were incubated 10 min before the addiction of the agonists. Then, cells were incubated in the reaction medium for 15 min at 37 °C. The reaction was stopped by the removal of the medium and the addition of 0.4 N HCl. After 30 min, lysates were neutralised with 4 N KOH and the suspension was centrifuged at 800 g for 5 min. For the determination of cAMP production, bovine adrenal cAMP-binding protein was incubated with [^3H]cAMP (2 nM) at 0 °C for 150 min in a total volume of 300 µL. Bound radioactivity was separated by rapid filtration. The radioactivity was measured by liquid scintillation spectrometry.
Figure 2. Effects of compound 9 as positive allosteric modulator of the A2B AR. A) Effects of 9 on NECA-mediated cAMP accumulation in human A2B AR-transfected CHO cells. CHO cells were treated with an EC50 NECA concentration (100 nM) in the absence or presence of different concentrations of the tested compound (1 nM–10 μM). […] CHO cells were treated with different NECA concentration (1 nM–10 μM) in the absence or presence of 9 (650 nM or 6.5 μM). After 15 min incubation, the reaction was stopped and the intracellular cAMP levels were quantified. The data are expressed as the percentage of cAMP/well versus the maximal NECA effect, which was set to 100% and represent the mean ± SEM of at least three different experiments. Each experiment was performed in duplicate.

[5] = biological target: T4, human A3 adenosine receptors (Homo sapiens, UniProt P0DMS8); assay: Human A3 adenosine receptor competition binding ([3H]NECA, CHO cell membranes); conditions: radioligand binding, A3 AR
T4 construct: K. N. Klotz, Wurzburg University (gift); host or cells: CHO cells, stably transfected; membranes used
T4 sequence (P0DMS8 1-318): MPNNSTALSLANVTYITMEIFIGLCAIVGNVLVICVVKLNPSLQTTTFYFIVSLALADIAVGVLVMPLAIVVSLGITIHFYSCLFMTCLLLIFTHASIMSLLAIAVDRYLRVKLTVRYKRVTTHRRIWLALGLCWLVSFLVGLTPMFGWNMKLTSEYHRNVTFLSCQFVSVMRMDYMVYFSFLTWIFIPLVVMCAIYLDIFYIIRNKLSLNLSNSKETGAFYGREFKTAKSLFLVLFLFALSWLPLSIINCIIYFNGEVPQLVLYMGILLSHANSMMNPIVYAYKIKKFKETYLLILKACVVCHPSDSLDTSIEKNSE
Protocol: as §1
as §2, with “Briefly, cell” for “Briefly,”, “A3” for “A2A”, “180” for “90”

[6] = compound 1 μM alone, in the absence of BAY60-6583
[7] = compound 1 μM in the presence of BAY60-6583 (5 nM)
[8] = NECA concentration-response curves (1 nM-10 μM) in absence or presence of 9 (650 nM and 6.5 µM)

T2 sequence (P29274 whole entry): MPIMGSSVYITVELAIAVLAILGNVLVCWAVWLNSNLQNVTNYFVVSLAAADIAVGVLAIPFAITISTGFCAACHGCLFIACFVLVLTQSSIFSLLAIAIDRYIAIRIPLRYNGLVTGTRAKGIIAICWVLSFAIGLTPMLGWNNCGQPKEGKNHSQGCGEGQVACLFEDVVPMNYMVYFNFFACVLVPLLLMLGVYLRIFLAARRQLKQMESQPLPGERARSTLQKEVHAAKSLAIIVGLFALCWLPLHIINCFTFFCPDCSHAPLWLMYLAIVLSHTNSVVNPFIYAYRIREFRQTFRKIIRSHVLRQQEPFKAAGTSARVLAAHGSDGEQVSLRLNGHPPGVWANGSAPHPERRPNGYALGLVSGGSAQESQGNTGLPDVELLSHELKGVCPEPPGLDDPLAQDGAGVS

Structure (SMILES)	melting point [°C]	percentage of mineralisation versus the CTRL set to 100% (MSCs [2]; [6])	percentage of mineralisation versus the CTRL set to 100% (MSCs [2]; [7]) [%]	also measured
N#Cc1c(N)nc(SCC(N)=O)c(C#N)c1-c1ccc(OCC2CC2)cc1 [BAY60-6583, reference compound]	–	–	–	EC50 (MSCs [1]): 6 nM; percentage of mineralisation versus the CTRL set to 100% (MSCs [2]; BAY60-6583 5 nM alone): 129.5 ± 1.9%
O=C(Nc1ccccc1)C(=O)c1cn(CCc2ccccc2)c2ccccc12 [Compound 4]	139 to 140	130.0 ± 6.8%	179.2 ± 9.6	–
O=C(NCc1ccccc1)C(=O)c1cn(CCc2ccccc2)c2ccccc12 [Compound 5, N-Benzyl-2-(1-phenylethyl-1H-indol-3-yl)glyoxylamide]	83 to 85	128.7 ± 3.6%	152.3 ± 4.3	–
O=C(NCc1ccc(Cl)cc1)C(=O)c1cc2ccccc2o1 [Compound 9, N-(4-Chlorobenzyl)-2-(benzofuran-2-yl)glyoxylamide]	137 to 139	111.5 ± 4.6%	156.8 ± 7.6	Ki [3]: > 10000 nM; Ki [4]: > 10000 nM; effect on efficacy of NECA in stimulating cAMP accumulation (human A2B AR; [8]): significantly enhanced the efficacy of NECA; effect on potency of NECA in stimulating cAMP accumulation (human A2B AR; [8]): without affecting agonist potency; EC50 (human A2B AR; compound 1 nM-10 µM in the presence of NECA 100 nM, human A2B AR-transfected CHO cells, read-out: EC50, positive allosteric modulation of A2B AR (NECA-mediated cAMP accumulation)): 636 ± 65.3 nM; % cAMP production (vs NECA 100 nM set to 100%), Alone (human A2B AR; compound 10 µM alone, CHO cells expressing human A2B AR, mean ± SEM): 2.7 ± 1.3%; % cAMP production (vs NECA 100 nM set to 100%), + agonist (human A2B AR; compound 10 µM in the presence of NECA (100 nM), CHO cells expressing human A2B AR, mean ± SEM): 184.0 ± 11.7 %; Ki [5]: > 10000 nM
O=C(NCc1ccccc1)C(=O)c1cccs1 [Compound 10, N-Benzyl-2-(thien-2-yl)glyoxylamide]	95.6 to 95.8	inactivity	150.6 ± 2.6	–

The next lines start with results.

melting point [°C]	Structure (SMILES)	percentage of mineralisation versus the CTRL set to 100% (MSCs [2]; [6])	percentage of mineralisation versus the CTRL set to 100% (MSCs [2]; [7]) [%]	also measured
167 to 169	Cn1cc(C(=O)C(=O)Nc2ccccc2)c2ccccc21 [Compound 6, N-Phenyl-2-(1-methyl-1H-indol-3-yl)glyoxylamide]	–	–	–
147 to 149	Cn1cc(C(=O)C(=O)NCc2ccccc2)c2ccccc21 [Compound 7, N-Benzyl-2-(1-methyl-1H-indol-3-yl)glyoxylamide]	–	–	–
87 to 89	O=C(NCc1ccccc1)C(=O)c1csc2ccccc12 [Compound 8, N-Benzyl-2-(benzothien-3-yl)glyoxylamide]	inactivity	–	–
88 to 90	Cn1cc(C(=O)C(=O)c2ccccc2)c2ccccc21 [Compound 13, 1-(1-Methyl-1H-indol-3-yl)-2-phenyl-1,2-ethanedione]	–	–	–
